# Test results taken from patent publication US20100256148A1, “USE OF CFMS INHIBITOR FOR TREATING OR PREVENTING BONE CANCER AND THE BONE LOSS AND BONE PAIN ASSOCIATED WITH BONE CANCER” (priority 2007, published 2010).
# Counter-ions that a name gives are not always drawn. Like-named read-outs stand apart in the source and are kept apart here. Marks after values point to notes of the source that are not given here.
# Assays:
# [1] = test system: NCTC 2472 osteolytic sarcoma cells; experiment: 2472 sarcoma model of secondary bone tumor: osteolysis and histology; type: in vivo, mouse; conditions: for Bone erosion score (visual, scale 0-5, microradiographs): Day 15
# Protocol: (§1) 2472 sarcoma model of secondary bone tumor pain and osteolysis. Experiments were performed on adult male C3H/HeJ mice (Jackson Laboratories, Bar Harbor, Me., USA), approximately 7-8 weeks old, weighing 25-30 g at the time of tumor cell injection. An arthrotomy was performed following induction of general anesthesia with ketamine/xylazine (2:1 ratio; intramuscular (i.m.)). A needle was inserted into the intramedullary canal to create a pathway for the sarcoma cells. A depression was then made using a pneumatic dental high speed handpiece. Mice were injected with Hanks buffered saline (HBSS) (20 ul, Sigma, St. Louis, Mo., USA) or HBSS containing the 2472 sarcoma line (ATCC, Rockville, Md., USA). The injection site is sealed with a dental amalgam plug to confine the cells within the intramedullary canal and followed by irrigation with sterile water (hypotonic solution). Finally, incision closure is achieved with a wound clip. Clips are removed at day 5 as not to interfere with behavioral testing.
# The extent of tumor-induced bone reorganization (osteolysis) was radiologically assessed using Faxitron analysis (Specimen Radiography System Model MX-20, Faxitron X-ray Corporation, Wheeling, Ill., and Kodak film Min-R 2000, Rochester, N.Y.). Radiographs of tumor-bearing femora were scored on a 0 to 5 scale: (0) normal bone with no signs of destruction; (1) small pits of bone destruction (1-3 in number); (2) increased pitted appearance (3-6) and loss of medullary bone; (3) loss of medullary bone and erosion of cortical bone; (4) full thickness unicortical bone loss; (5) full thickness bicortical bone loss and displaced skeletal fracture.
# [2] = test system: NCTC 2472 osteolytic sarcoma cells; experiment: 2472 sarcoma model: pain-related behaviors; type: in vivo, mouse
# Protocol: as §1
# A variety of behavioral measurements were used to assess the extent of bone cancer pain.
# Spontaneous nocifensive behaviors: The number of spontaneous flinches and guarding, representative of nociceptive behavior, were recorded during a 2-minute observation period. Flinches are defined as number of times the animal raises its hindpaw and guarding as the amount of time animals hold the hindpaw aloft while stationary.
# Palpation-induced nocifensive behaviors: Mechanical allodynia at the knee joint was evaluated by normally non-noxious palpation of the distal femur every second for 2 minutes. Following the 2-minute palpation, the mice were placed in the observation box and their palpation-induced guarding and flinching behavior was measured for an additional 2 minutes, as discussed above.
# [3] = test system: MRMT-1 rat mammary gland carcinoma cells; experiment: Rat MRMT-1 bone metastasis model (osteolysis, osteoclasts, tumor); type: in vivo; set-up: key to Microradiograph score (five point visual score): 0 = no destruction to 5 = bi-cortical bone loss/fracture; key to Trabecular bone vol score (three point visual score): 0 = none, 1 = 1-10%, 2 = >10-<40% (normal), 3 = >40% area; key to Tumor vol score (three point visual score): 0 = none, 1 = small, 2 = moderate, 3 = large tumor; conditions: for Microradiograph score (five point visual score) / Osteoclast Counts (TRAP positive cells, mean of three 200x fields) / Tumor vol score (three point visual score) / Trabecular bone vol score (three point visual score): Day 3 to Day 17, mean ± SEM
# Protocol: Rat MRMT-1 bone metastasis model. Inoculation of rat mammary MRMT-1 adenocarcinoma cells into tibiae has been described as a bone metastasis model (Medhurst S J, et al., Pain 2002; 96:129-40. An adaptation of the model (Roudier M P, et al., Clin Exp Metastasis 2006, 23:167-75) was performed by MDS Pharma Services (Bothel, Wash.). Female Sprague-Dawley rats (Harlan Sprague Dawley, Inc., Indianapolis, Ind.) approximately 125-150 grams were acclimated one week. The animals were anesthetized with ketamine/xylazine, and the right leg area was shaved and scrubbed with chlorhexadine and 70% ethanol (SOP-SUR026). A 1-cm rostral-caudal incision was made in the skin over the top half of the tibia. Blunt-dissection exposed the proximal tibia, and a Hamilton syringe guided by a 23-gauge needle was used to inject 3 μl of saline (sham) or saline containing 3×10^4 MRMT-1 cells into the medullary cavity of the right proximal tibia of each rat. The injection site was closed with bone wax. The wound was closed with surgical staples. […] To serve as a control, a fourth group was dosed QOD sc with 0.03 mg/kg zoledronate in saline. Eight rats were dosed per group. Rats were sacrificed on Day 17. Right tibiae were excised, together with surrounding tumor tissue, and microradiographs prepared using an MX-20 x-ray system (Faxitron X-ray Corporation, Wheeling, Ill.). Microradiographs were scored for tumor-induced osteolysis as follows: 0, no signs of destruction; 1, one to three small radiolucent lesions; 2, three to six lesions and loss of medullary bone; 3, loss of medullary bone and erosion of cortical bone; 4, full thickness uni-cortical bone loss; 5, full thickness bi-cortical bone loss and/or displaced skeletal fracture. The radiographs were used to select representative bones from each group for microCT imaging. All tibia were fixed in 10% neutral buffered formalin for two days, decalcified and sectioned for histopathological evaluation. TRAP staining was performed as described previously in Liu, C., et al., 1987. […] For each tibia, the numbers of tumor-associated TRAP^+ osteoclasts were counted in the three 200×-fields with highest osteoclast frequency. A semi-quantitative three-point scoring method was used to compare treatment groups with regards to trabecular bone volume (3, >40 area; 2, >10%<40% area (normal); 1, 1-10% area; 0, none) and tumor volume (3, large; 2, moderate; 1, small; 0, none).
# H460, MDA-MB-231, A375 = experiment: Growth factor-independent proliferation of adenocarcinoma cells; type: cell-based, human
# [4] = test system: NCI-H460 human lung carcinoma cells; conditions: for final tumor weights reduced by: at study termination
# MRMT-1 cells = experiment: Tactile (mechanical) allodynia in the MRMT-1 model; type: in vivo, rat
# Protocol: Rat MRMT-1 bone metastasis model. Inoculation of rat mammary MRMT-1 adenocarcinoma cells into tibiae has been described as a bone metastasis model (Medhurst S J, et al., Pain 2002; 96:129-40. An adaptation of the model (Roudier M P, et al., Clin Exp Metastasis 2006, 23:167-75) was performed by MDS Pharma Services (Bothel, Wash.). Female Sprague-Dawley rats (Harlan Sprague Dawley, Inc., Indianapolis, Ind.) approximately 125-150 grams were acclimated one week. The animals were anesthetized with ketamine/xylazine, and the right leg area was shaved and scrubbed with chlorhexadine and 70% ethanol (SOP-SUR026). A 1-cm rostral-caudal incision was made in the skin over the top half of the tibia. […] Microradiographs were scored for tumor-induced osteolysis as follows: 0, no signs of destruction; 1, one to three small radiolucent lesions; 2, three to six lesions and loss of medullary bone; 3, loss of medullary bone and erosion of cortical bone; 4, full thickness uni-cortical bone loss; 5, full thickness bi-cortical bone loss and/or displaced skeletal fracture. […] For each tibia, the numbers of tumor-associated TRAP^+ osteoclasts were counted in the three 200×-fields with highest osteoclast frequency. […]
# Pain Behavioral Assessments. […] The behavioral test for tactile allodynia, measured prior to surgery, was used for randomization of animals to the treatment groups. […]
# [5] = 60 mg/kg oral twice daily, tumor mice
# [6] = 120 mg/kg oral twice daily, sham mice
# [7] = 120 mg/kg oral twice daily, tumor mice
# [8] = JNJ-141 20 mpk oral twice daily
# [9] = JNJ-141 60 mpk oral twice daily
# [10] = 25 mg/kg oral twice daily, mean ± SEM
# [11] = 50 mg/kg oral twice daily, mean ± SEM
# [12] = 100 mg/kg oral twice daily, mean ± SEM
compound,measurement,setting,value
"CN(C)CC(=O)N1CCC(c2ccc(NC(=O)c3nc(C#N)c[nH]3)c(C3=CCCCC3)c2)CC1 [JNJ-141, 4-cyano-N-[2-(1-cyclohexen-1-yl)-4-[1-[(dimethylamino)acetyl]-4-piperidinyl]phenyl]-1H-imidazole-2-carboxamide monohydrochloride]","Bone erosion score (visual, scale 0-5, microradiographs)","[1]; 60 mg/kg oral twice daily, NCTC 2472 tumor mice",3.5
same,Macrophage Counts (CD68 positive cells),[1]; [5],84** Counts per high powered field
same,Osteoclast Counts (TRACP positive cells),[1]; [5],79** Counts per high powered field
same,Tumor area % marrow,[1]; [5],100%
same,"Bone erosion score (visual, scale 0-5, microradiographs)","[1]; 120 mg/kg oral twice daily, NCTC 2472 tumor mice",2.0**
same,"Bone erosion score (visual, scale 0-5, microradiographs)","[1]; 120 mg/kg oral twice daily, sham (saline) mice",0.25
same,Macrophage Counts (CD68 positive cells),[1]; [6],28 Counts per high powered field
same,Osteoclast Counts (TRACP positive cells),[1]; [6],41 Counts per high powered field
same,Macrophage Counts (CD68 positive cells),[1]; [7],140* Counts per high powered field
same,Osteoclast Counts (TRACP positive cells),[1]; [7],147 Counts per high powered field
same,Tumor area % marrow,[1]; [7],90%
same,PIF Day 7 (palpation-induced flinches over 2 minutes),[2]; [5],10.3
same,PIF Day 9 (palpation-induced flinches over 2 minutes),[2]; [5],14.3
same,PIF Day 11 (palpation-induced flinches over 2 minutes),[2]; [5],16.3
same,PIF Day 13 (palpation-induced flinches over 2 minutes),[2]; [5],12.7*
same,PIF Day 15 (palpation-induced flinches over 2 minutes),[2]; [5],11.7**
same,PIG Day 15 (palpation-induced guarding time over 2 minutes),[2]; [5],9.1* sec
same,SF Day 15 (spontaneous flinches over 2 minutes),[2]; [5],10*
same,SG Day 15 (spontaneous guarding time over 2 minutes),[2]; [5],7.9 s
same,PIF Day 7 (palpation-induced flinches over 2 minutes),[2]; [6],2.5
same,PIF Day 9 (palpation-induced flinches over 2 minutes),[2]; [6],1.3
same,PIF Day 11 (palpation-induced flinches over 2 minutes),[2]; [6],1.3
same,PIF Day 13 (palpation-induced flinches over 2 minutes),[2]; [6],1.8
same,PIF Day 15 (palpation-induced flinches over 2 minutes),[2]; [6],1.8
same,PIG Day 15 (palpation-induced guarding time over 2 minutes),[2]; [6],0.9 s
same,SF Day 15 (spontaneous flinches over 2 minutes),[2]; [6],1.3
same,SG Day 15 (spontaneous guarding time over 2 minutes),[2]; [6],0.6 s
same,PIF Day 7 (palpation-induced flinches over 2 minutes),[2]; [7],9.5
same,PIF Day 9 (palpation-induced flinches over 2 minutes),[2]; [7],7.8**
same,PIF Day 11 (palpation-induced flinches over 2 minutes),[2]; [7],8.5**
same,PIF Day 13 (palpation-induced flinches over 2 minutes),[2]; [7],10.3**
same,PIF Day 15 (palpation-induced flinches over 2 minutes),[2]; [7],9.3**
same,PIG Day 15 (palpation-induced guarding time over 2 minutes),[2]; [7],6.4** sec
same,SF Day 15 (spontaneous flinches over 2 minutes),[2]; [7],8.5**
same,SG Day 15 (spontaneous guarding time over 2 minutes),[2]; [7],6.1** sec
same,palpation induced flinching reduced by,"[2]; 120 mg/kg, Day 15",approximately 50%
same,Microradiograph score (five point visual score),[3]; [8],0.75 ± 0.17
same,"Osteoclast Counts (TRAP positive cells, mean of three 200x fields)",[3]; [8],3.7 ± 0.7
same,Tumor vol score (three point visual score),[3]; [8],1.75 ± 0.48
same,tumor-associated osteoclasts reduced by,[3]; JNJ-141 20 or 60 mg/kg oral twice daily,greater than 95%
same,Microradiograph score (five point visual score),[3]; [9],0.83 ± 0.18
same,"Osteoclast Counts (TRAP positive cells, mean of three 200x fields)",[3]; [9],2.6 ± 1.5
same,Trabecular bone vol score (three point visual score),[3]; [9],2.33 ± 0.23
same,Tumor vol score (three point visual score),[3]; [9],1.50 ± 0.55
same,growth factor-independent (serum-dependent) proliferation in culture,"H460, MDA-MB-231, A375; 5 μM, monohydrochloride",did not inhibit
same,IC50,"H460, MDA-MB-231, A375; Homo sapiens, H460, MDA-MB-231, A375, no stimulus, determined once",> 5 µM
same,"Mean final tumor weight, mg","[4]; 25 mg/kg oral twice daily (qd on weekends) from day 3, mean ± SEM","1,257 ± 209 mg"
same,"Macrophage density, % area (F4/80 positive, 200X-field)",[4]; [10],4.3 ± 0.68 % area
same,"Microvascular density, % area (CD31 positive)",[4]; [10],3.73 ± 0.81 % area
same,final tumor weights reduced by,[4]; 25 mg/kg oral,21%
same,"Mean final tumor weight, mg","[4]; 50 mg/kg oral twice daily (qd on weekends) from day 3, mean ± SEM","1,070 ± 121 mg"
same,"Macrophage density, % area (F4/80 positive, 200X-field)",[4]; [11],2.6 ± 0.57 % area
same,"Microvascular density, % area (CD31 positive)",[4]; [11],2.10 ± 0.57 % area
same,final tumor weights reduced by,[4]; 50 mg/kg oral,32%
same,Mean final tumor weight,"[4]; 100 mg/kg oral twice daily (qd on weekends) from day 3, mean ± SEM",870 ± 94 mg
same,"Macrophage density, % area (F4/80 positive, 200X-field)",[4]; [12],0.31 ± 0.14 % area
same,"Microvascular density, % area (CD31 positive)",[4]; [12],1.25 ± 0.16 % area
same,final tumor weights reduced by,[4]; 100 mg/kg oral,45%
same,reduction in tumor vascularity (vessel density),[4]; highest dose (100 mg/kg),66%
CN1CC[C@]23c4c5ccc(O)c4O[C@H]2[C@@H](O)C=C[C@H]3[C@H]1C5 [morphine],mechanical allodynia of affected animals,"MRMT-1 cells; morphine, from the 2nd time point forward",reversed allodynia
"O=P(O)(O)C(O)(Cn1ccnc1)P(=O)(O)O [zoledronate, reference compound]",mechanical allodynia compared to tumor-inoculated animals,MRMT-1 cells; zoledronate treatment,decreased allodynia compared to tumor-inoculated animals but this effect did not reach statistical significance
same,full thickness cortical bone lesions,"[3]; treated rats, day 17",not observed
same,tumor-associated osteoclasts reduced by,[3]; zoledronate 0.03 mg/kg QOD sc,64%
same,Microradiograph score (five point visual score),[3]; zoledronate 0.03 mpk QOD sc,0.38 ± 0.20
same,"Osteoclast Counts (TRAP positive cells, mean of three 200x fields)",[3]; zoledronate 0.03 mpk QOD sc,21.0 ± 3.2
same,Trabecular bone vol score (three point visual score),[3]; zoledronate 0.03 mpk QOD sc,2.63 ± 0.20
same,Tumor vol score (three point visual score),[3]; zoledronate 0.03 mpk QOD sc,1.63 ± 0.20
